# From patent US10238688B2, “Combination therapies for bladder cancer” (GENEDIA BIOTECH CO. LTD., priority 2015, dated 2019)
# Key:
# [1] = tested on: 5637; assay: MTT cell survival / IC50, 5637 cells; assay type: cell-based, human
# [2] = tested on: H-bc; assay: MTT cell survival / IC50, H-bc cells; assay type: cell-based, human
# [3] = tested on: J-82; assay: MTT cell survival / IC50, J-82 cells; assay type: cell-based, human; conditions: J82; Table S3; ng/ml: Pi 40, Pa 160, EH 250, Ci 1500, Mi 200; 1=Ci/Mi, 2=EH/Ci/Mi, 3=Pa/Ci/Mi, 4=Pi/Ci/Mi
# [4] = tested on: T24; assay: MTT cell survival / IC50, T24 cells; assay type: cell-based, human
# [5] = tested on: EJ; assay: MTT cell survival / IC50, EJ cells; assay type: cell-based, human
# [6] = tested on: Biu87; assay: MTT cell survival / IC50, Biu87 cells; assay type: cell-based, human
# [7] = tested on: SCaBER; assay: MTT cell survival / IC50, SCaBER squamous carcinoma cells; assay type: cell-based, human
# [8] = tested on: Hypoxia pathway; assay: Cignal Finder dual-luciferase pathway reporter, Hypoxia; assay type: cell-based, human; design: key to Relative activity, Hypoxia reporter: firefly/renilla ratio, background (negative control) subtracted; conditions: for Relative activity, Hypoxia reporter: luc/Renluc relative to negative control reporter, single drug at 4 folds vs EH/Ci/Mi combination
# Experimental: (§1) The pathway analysis was performed with Qiagen's Cignal Finder Pathway Reporter Array systems according to the manufacturer's instructions. The pathway-focused dual-luciferase reporter construct was a mixture of an inducible transcription factor responsive firefly luciferase reporter and constitutively expressing renilla construct. Transcriptional response element (TRE) sequence response elements to each specific transcriptional factor triggered by the different signaling pathways are positioned before the TATA box of firefly luciferase reporter gene. The extent of activity of the reporter reflects the level of activity of the particular signaling pathway. CMV controlled renilla expression vector is co-transfected into the cell as an internal control. Non-inducible reporter construct that lacks the transcriptional factor binding sequence and could not be induced by any transcription factors is used as a negative control. Cells transfected with CMV directed firefly luciferase reporter gene serve as a positive control. Briefly, cells seeded in 6-well plates were transfected with Cignal finder pathway arrays according to the manufacturer's instructions (Qiagen). Then cells were seeded onto 96-well plates. Ci (6000 ng/mL), Mi (800 ng/mL), or EH (1000 ng/mL) and Ci/Mi/EH combination (Ci, 1500 ng/mL, Mi, 800 ng/mL and EH, 1000 ng/m L) were then added to the cells 24 h post-transfection. After 6 h of incubation with the different drugs at 37° C., cells were lysed and a dual luciferase assay (for firefly and renilla luciferase) was performed using a PromegaGloMax 20/20 illuminometer. The firefly luciferase activities were normalized over the renilla luciferase activities after background activity determined by luciferase activities of negative controls was subtracted. A triple test of cell survival under these drug doses was also performed by MTT assay following 18 h incubation at 37° C. […]
# [9] = tested on: Notch pathway; assay: Cignal Finder dual-luciferase pathway reporter, Notch; assay type: cell-based, human; design: key to Relative activity, Notch reporter: firefly/renilla ratio, background (negative control) subtracted; conditions: for Relative activity, Notch reporter: luc/Renluc relative to negative control reporter, single drug at 4 folds vs EH/Ci/Mi combination;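 on digitalized pathway activity, Notch: code −1 means repressed below 0.5-fold of 5637 cells or no-drug control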
# Experimental: as §1
# [10] = tested on: nine cancer-associated signaling pathways; assay: Pearson correlation of collective drug-triggered pathway activities (single drug versus EH/Ci/Mi regimen)
# From the text: To calculate the correlation coefficients between the two cell lines, the R language statistics function “cor{stats}” was used to generate the correlation matrix between multiple cell lines.
# This example then determined the correlation coefficient between the overall activity of these nine pathways and the chemoresistance state of these five cell lines. […] The overall state of activity of these pathways in each cell line are summarized (FIG. 4E) and the correlation coefficient of each pair of cell lines is calculated (FIG. 4F).
# [11] = Table S3, ng/ml: Pi 40, Pa 160, EH 250, Ci 1500, Mi 200, 1=Ci/Mi, 2=EH/Ci/Mi, 3=Pa/Ci/Mi, 4=Pi/Ci/Mi
# [12] = ng/ml: EH 1000, Ci 6000, Mi 800, Pi 160, Pa 640, Ge 20, EH/Ci/Mi regimen
compound,measurement,setting,value
"COC12C(COC(N)=O)C3=C(C(=O)C(C)=C(N)C3=O)N1CC1NC12 (stereo not drawn) [Mi, [6-Amino-8a-methoxy-5-methyl-4,7-dioxo-1,1a,2,4,7,8,8a,8b-octahydroazireno [2′,3′:3,4]pyrrolo[1,2-a]indol-8-yl]methyl carbamate]",Cell survival (%),"[1]; 5637, Table S3, ng/ml: Pi 40, Pa 160, EH 250, Ci 1500, Mi 200, 1=Ci/Mi, 2=EH/Ci/Mi, 3=Pa/Ci/Mi, 4=Pi/Ci/Mi",53.16%
same,Single drug 4X Cell Survival (%),"[1]; 5637, ng/ml: EH 1000, Ci 6000, Mi 800, Pi 160, Pa 640, Ge 20, EH/Ci/Mi regimen",35.46%
same,Cell survival 72 hours,"[1]; 5637 cells, Table 4 (A)",35.46%
same,ACS (%),"[1]; 5637 cells, Table 4 (B)",35.46%
same,Cell survival 72 hours,"[2]; H-bc cells, Table 4 (A)",81.16%
same,ACS (%),"[2]; H-bc cells, Table 4 (B)",81.16%
same,Cell survival (%),"[2]; H-bc, Table S3, ng/ml: Pi 40, Pa 160, EH 250, Ci 1500, Mi 200, 1=Ci/Mi, 2=EH/Ci/Mi, 3=Pa/Ci/Mi, 4=Pi/Ci/Mi",91.67%
same,Single drug 4X Cell Survival (%),"[2]; H-bc, ng/ml: EH 1000, Ci 6000, Mi 800, Pi 160, Pa 640, Ge 20, EH/Ci/Mi regimen",81.16%
same,Cell survival (%),[3],48.38%
same,Cell survival (%),[4]; [11],51.34%
same,Single drug 4X Cell Survival (%),[4]; [12],19.72%
same,Cell survival (%),[5]; [11],45.2%
same,Single drug 4X Cell Survival (%),[5]; [12],28.67%
same,Cell survival (%),"[6]; Biu87, Table S3, ng/ml: Pi 40, Pa 160, EH 250, Ci 1500, Mi 200, 1=Ci/Mi, 2=EH/Ci/Mi, 3=Pa/Ci/Mi, 4=Pi/Ci/Mi",42.05%
same,Single drug 4X Cell Survival (%),"[6]; Biu87, ng/ml: EH 1000, Ci 6000, Mi 800, Pi 160, Pa 640, Ge 20, EH/Ci/Mi regimen",21.74%
same,Cell survival 72 hours,"[6]; Biu87 cells, Table 4 (A)",21.74%
same,ACS (%),"[6]; Biu87 cells, Table 4 (B)",21.74%
same,Cell survival (%),[7]; [11],56.83%
same,Single drug 4X Cell Survival (%),[7]; [12],41.97%
same,"relative drug trigged pathway activity over the no-drug level, Hypoxia",[8]; 5637 cells,3.31 fold
same,"Relative activity, Hypoxia reporter",[8]; 5637 cells,75.18
same,"relative drug trigged pathway activity over the no-drug level, Hypoxia",[8]; Biu87 cells,3.56 fold
same,"Relative activity, Hypoxia reporter",[8]; Biu87 cells,26.99
same,"digitalized pathway activity, Hypoxia",[8]; H-bc cells,0 (null (0) if neither of the above holds)
same,"relative drug trigged pathway activity over the no-drug level, Hypoxia",[8]; H-bc cells,0.58 fold
same,"Relative activity, Hypoxia reporter",[8]; H-bc cells,20.08
same,"relative drug trigged pathway activity over the no-drug level, Hypoxia",[8]; SV-HUC-1 cells,2.08 fold
same,"Relative activity, Hypoxia reporter",[8]; SV-HUC-1 cells,52.50
same,"digitalized pathway activity, Hypoxia",[8]; UM-UC-3 cells,0 (null (0) if neither of the above holds)
same,"Relative activity, Hypoxia reporter",[8]; UM-UC-3 cells,45.95
same,"relative drug trigged pathway activity over the no-drug level, Hypoxia",[8]; Um-Uc-3 cells,0.73 fold
same,"relative drug trigged pathway activity over the no-drug level, Notch",[9]; 5637 cells,2.2 fold
same,"Relative activity, Notch reporter",[9]; 5637 cells,2.23
same,"digitalized pathway activity, Notch",[9]; Biu87 cells,0 (null (0) if neither of the above holds)
same,"relative drug trigged pathway activity over the no-drug level, Notch",[9]; Biu87 cells,1.45 fold
same,"Relative activity, Notch reporter",[9]; Biu87 cells,6.42
same,"relative drug trigged pathway activity over the no-drug level, Notch",[9]; H-bc cells,0.42 fold
same,"Relative activity, Notch reporter",[9]; H-bc cells,0.59
same,"digitalized pathway activity, Notch",[9]; SV-HUC-1 cells,0 (null (0) if neither of the above holds)
same,"relative drug trigged pathway activity over the no-drug level, Notch",[9]; SV-HUC-1 cells,0.95 fold
same,"Relative activity, Notch reporter",[9]; SV-HUC-1 cells,4.10
same,"Relative activity, Notch reporter",[9]; UM-UC-3 cells,7.40
same,"relative drug trigged pathway activity over the no-drug level, Notch",[9]; Um-Uc-3 cells,1.5 fold
same,Correlation coefficients versus EH/Ci/Mi,[10]; 5637 cells,1
same,Correlation coefficients versus EH/Ci/Mi,[10]; Biu87 cells,0.982
same,Correlation coefficients versus EH/Ci/Mi,[10]; H-bc cells,−0.2773
same,Correlation coefficients versus EH/Ci/Mi,[10]; SV-HUC-1 cells,1
same,Correlation coefficients versus EH/Ci/Mi,[10]; UmUc3 cells,0.982
